The subject of assay [1] is Mus musculus. The experiment in a line: Anticonvulsant activity in mice by MES test at 3.0 hr following intraperitoneal injection of 30 mg/kg dose. In kind it is functional.
Assay [2] deals with T1, Carbonic anhydrase 4 (Bos taurus, UniProt Q95323).
T1 sequence (Q95323 whole entry): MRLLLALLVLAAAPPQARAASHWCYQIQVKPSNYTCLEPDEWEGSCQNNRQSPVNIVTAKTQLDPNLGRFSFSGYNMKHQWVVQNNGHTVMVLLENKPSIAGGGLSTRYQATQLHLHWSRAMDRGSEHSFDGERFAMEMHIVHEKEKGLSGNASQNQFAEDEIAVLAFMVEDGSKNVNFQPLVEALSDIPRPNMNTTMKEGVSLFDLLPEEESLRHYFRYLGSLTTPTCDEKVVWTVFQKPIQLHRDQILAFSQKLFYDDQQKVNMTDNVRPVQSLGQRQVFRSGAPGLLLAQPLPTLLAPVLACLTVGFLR
Description: Inhibitory effect on bovine Carbonic anhydrase IV

The target in assay [3] is Carbonic anhydrase 1 (Homo sapiens, UniProt P00915).
Description: Inhibitory effect on human carbonic anhydrase I
The test system of assay [4] is Mus musculus. The experiment in a line: Anticonvulsant activity in mice by MES test at 0.5 h following intraperitoneal injection of 30 mg/kg dose. The format is functional.
Assay [5] deals with Carbonic anhydrase 2 (Homo sapiens, UniProt P00918).
Description: Inhibitory effect on human Carbonic anhydrase II
The subject of assay [6] is Mus musculus. The experiment in a line: Anticonvulsant activity in mice by MES test at 0.5 hr following intraperitoneal injection of 30 mg/kg dose. In kind it is functional.
Assay [7] concerns Mus musculus. The experiment in a line: Anticonvulsant activity in mice by MES test at 3.0 hr following intraperitoneal injection of 10 mg/kg dose. The format is functional.
Assay [8] relates to Mus musculus. The experiment in a line: Anticonvulsant activity in mice by MES test at 0.5 hr following intraperitoneal injection of 10 mg/kg dose. The format is functional.
The subject of assay [9] is Mus musculus. The assay is described as follows: Anticonvulsant activity in mice by MES test at 3.0 hr following intraperitoneal injection of 30 mg/kg dose. In kind it is functional.
For assay [10], the system named is Mus musculus. The experiment in a line: Anticonvulsant activity in mice by MES test at 3.0 hr following intraperitoneal injection of 10 mg/kg dose. In kind it is functional.
The subject of assay [11] is Mus musculus. The assay is described as follows: Anticonvulsant activity in mice by MES test at 3.0 h following intraperitoneal injection of 30 mg/kg dose. The format is functional.
Assay [12] deals with Mus musculus. The assay is described as follows: Anticonvulsant activity in mice by MES test at 0.5 hr following intraperitoneal injection of 10 mg/kg dose. In kind it is functional.
Assay [13] in a line: Activity in MES test with six to eight OFI male mice for each time at 30 mg/kg dose at 2.0 h. In kind it is functional, Mus musculus.
Assay [14] is filed under the species Mus musculus. The experiment in a line: MES test: number of mice treated / total number of mice at 3.0 h. The format is functional.
Assay [15] is described as follows: Activity in MES test with six to eight OFI male mice for each time at 30 mg/kg dose at 1.0 h. In kind it is functional, Mus musculus.
For assay [16], the species on record is Mus musculus. The assay is described as follows: MES test: number of mice treated / total number of mice at 1.0 h. In kind it is functional.
A short description of assay [17]: Activity in MES test with six to eight OFI male mice for each time at 30 mg/kg dose at 3.0 h. In kind it is functional, Mus musculus.
The species named for assay [18] is Mus musculus. The assay is described as follows: MES test: number of mice treated / total number of mice 4.0 h. The format is functional.
The species named for assay [19] is Mus musculus. The experiment in a line: MES test: number of mice treated / total number of mice at 2.0 h. In kind it is functional.
Assay [20] is described as follows: Activity in MES test with six to eight OFI male mice for each time at 30 mg/kg dose at 4.0 h. In kind it is functional, Mus musculus.
A short description of assay [21]: Activity in MES test with six to eight OFI male mice for each time at 30 mg/kg dose at 0.5 h. The format is functional, Mus musculus.
Assay [22] is filed under the species Mus musculus. The experiment in a line: MES test: number of mice treated / total number of mice 6.0 h. The format is functional.
Assay [23] is filed under the species Mus musculus. The experiment in a line: MES test: number of mice treated / total number of mice at 0.5 h. The format is functional.
Assay [24] can be described thus: Activity in MES test with six to eight OFI male mice for each time at 30 mg/kg dose at 6.0 h. The format is functional, Mus musculus.

The results in this text go back to ChEMBL document CHEMBL1135800, “Carbonic anhydrase inhibitors: anticonvulsant sulfonamides incorporating valproyl and other lipophilic moieties” (J Med Chem, 2002).

Chain of Carbonic anhydrase 1 (P00915 whole entry): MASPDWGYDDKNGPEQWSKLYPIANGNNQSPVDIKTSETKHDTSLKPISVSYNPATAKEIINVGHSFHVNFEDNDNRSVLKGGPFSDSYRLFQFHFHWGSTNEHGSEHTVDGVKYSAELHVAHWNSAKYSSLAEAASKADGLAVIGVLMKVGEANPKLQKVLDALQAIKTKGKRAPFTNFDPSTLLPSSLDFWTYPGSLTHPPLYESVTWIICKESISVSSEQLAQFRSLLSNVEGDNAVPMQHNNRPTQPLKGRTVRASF

What is called Ki is the dissociation constant of the complex between target and ligand, obtained from inhibition or displacement. For the compound `NS(=O)(=O)c1nnc(NC(=O)c2ccccc2)s1`, the Protected mice amounted to 25% in assay [1] and 83% in [4]. Also, the figures for the Ki in [2] and in assay [3] were 21 nM and 38 nM, respectively.

On to `CCCC(CCC)C(=O)Nc1ccc(S(N)(=O)=O)cc1F`, for which the Ki worked out at 45 nM in assay [5], 110 nM in [2] and 1000 nM in [3].

As to `COc1cc(C(=O)Nc2nnc(S(N)(=O)=O)s2)cc(OC)c1OC`, the values for the Protected mice in assay [6] and in assay [1] were 25% and 67%, respectively. Besides, the Ki in assay [5] amounted to 10 nM; in assay [2], 51 nM; in [3], 900 nM.

Consider `CCCC(CCC)C(=O)Nc1ccc(S(N)(=O)=O)cc1Cl`, for which the Ki in [5] was 50 nM; in assay [2], 125 nM; in [3], 950 nM.

In the case of `CCCC(CCC)C(=O)NNc1ccc(S(N)(=O)=O)cc1`, the Ki in [5] is 300 nM; in assay [2] it was 950 nM; in [3], 35600 nM.

`Cc1ccc(S(=O)(=O)NC(=O)Nc2nnc(S(N)(=O)=O)s2)cc1`: the Ki was determined as 4 nM in assay [5], 12 nM in assay [2] and 3 nM in assay [3]. Also, the Protected mice stood at 33% in assay [1] and 8% in assay [4].

Consider `CCCC(CCC)C(=O)Nc1ccc(S(N)(=O)=O)cc1I`, for which the Ki was found to be 43 nM in [5], 85 nM in assay [2] and 550 nM in [3].

Regarding `CC(C)(C)C(=O)Nc1nnc(S(N)(=O)=O)s1`, the Protected mice is 75% in [6], 100% in assay [1], 87% in assay [7] and 44% in assay [8]. Besides, the Ki in assay [2] was found to be 46 nM; in [3], 110 nM.

As to `CCCC(CCC)C(=O)Nc1cc(Cl)c(S(N)(=O)=O)cc1S(N)(=O)=O`, the figures for the inhibition constant Ki in assay [5], in assay [2] and in assay [3] were 70 nM, 133 nM and 800 nM, respectively.

Turning to `CC(=O)/N=c1/sc(S(N)(=O)=O)nn1C` [METHAZOLAMIDE], the Protected mice in assay [1] was 100%; in assay [7], 88%; in assay [8], 75%; in assay [4], 83%.

As for `CCCC(CCC)C(=O)OCCOc1ccc2nc(S(N)(=O)=O)sc2c1`, the Ki is 7 nM in [5], 13 nM in [2] and 50 nM in assay [3].

`Cc1ccc(S(=O)(=O)Nc2nnc(S(N)(=O)=O)s2)cc1`: the Protected mice is 92% in [6], 75% in assay [1], 62% in assay [7] and 12% in assay [8]. For the same compound, the figures for the Ki in [5], in assay [2] and in [3] were 4 nM, 3 nM and 5 nM, respectively.

Regarding `CCCC(CCC)C(=O)/N=c1/sc(S(N)(=O)=O)nn1C`, the inhibition constant Ki in [5] turned out to be 10 nM; in assay [2], 42 nM; in [3], 70 nM.

For `NS(=O)(=O)c1nnc(NC(=O)CCNS(=O)(=O)c2ccc(I)cc2)s1`, the figures for the Ki in assay [5], in [2] and in assay [3] were 1.2 nM, 120 nM and 260 nM, respectively. The Protected mice in [9] is 25%; in assay [4], 33%.

For `CC1(C)O[C@@H]2[C@@H](CO[C@@]3(COS(N)(=O)=O)OC(C)(C)O[C@@H]23)O1` [TOPIRAMATE], the Protected mice in assay [6] came to 100%; in assay [10], 50%; in [11], 83%; in assay [12] it was 62%. Moreover, in [2], the Ki came to 54 nM.

Regarding `CCCC(CCC)C(=O)Nc1cccc(S(N)(=O)=O)c1`, the Ki came out at 221 nM in assay [5], 740 nM in [2] and 19000 nM in [3].

Regarding `NS(=O)(=O)c1nnc(NS(=O)(=O)c2ccc(NC(=O)[C@@H]3C4C=CC(C4)C3C(=O)O)cc2)s1` (stereo partly drawn), the Ki in [5] is 1.5 nM; in assay [2], 4 nM; in [3] it was 5.5 nM. Besides, the Protected mice in [1] worked out at 33%; in assay [4] it was 25%.

Regarding `CCCC(CCC)C(=O)Nc1ccc(S(N)(=O)=O)cc1Br`, the Ki in [5] turned out to be 36 nM; in [2], 49 nM; in assay [3] it was 600 nM.

Consider `CCCC(CCC)C(=O)Nc1nnc(S(N)(=O)=O)s1`, for which the Protected mice stood at 96% in [6]; 100% in assay [10]; 100% in [13]; 81% in assay [15]; 93% in assay [17]; 93% in assay [9]. Further, the Protected mice in assay [20] is listed as 50%; in assay [21], 96%; in assay [12] it was 25%; in assay [24], 63%. Moreover, the Ki came to 6 nM in assay [5], 25 nM in assay [2] and 50 nM in [3]. Also, the No. of mice in assay [14] amounted to 7; in [16], 6.5; in [18], 4; in assay [19], 8; in assay [22], 5; in assay [23], 7.5.

For `NS(=O)(=O)c1nnc(NC(=O)C23C[C@H]4C[C@@H](C2)C[C@@H](C3)C4)s1`, the Protected mice amounted to 96% in assay [1], 93% in assay [7], 25% in [8] and 83% in [4]. Besides, the Ki stood at 65 nM in [2] and 850 nM in assay [3].

For `CCCC(CCC)C(=O)Nc1ccc(S(N)(=O)=O)cc1`, the Ki in assay [5] came to 240 nM; in [2], 630 nM; in [3], 22500 nM.

On to `CCCC(CCC)C(=O)Nc1ccccc1S(N)(=O)=O`, for which the results for the Ki in assay [5], in assay [2] and in assay [3] were 255 nM, 950 nM and 23000 nM, respectively.

`CCCC(CCC)C(=O)Nc1ccc2nc(S(N)(=O)=O)sc2c1`: the results for the Ki in assay [5], in assay [2] and in assay [3] were 7 nM, 16 nM and 62 nM, respectively.

With `CCCC(CCC)C(=O)Oc1ccc2nc(S(N)(=O)=O)sc2c1`, the Ki in assay [5] came to 7 nM; in assay [2] it was 15 nM; in assay [3], 50 nM.

In the case of `CCCC(CCC)C(=O)NCc1ccc(S(N)(=O)=O)cc1`, the Ki in assay [5] came out at 96 nM; in assay [2] it was 210 nM; in assay [3], 3700 nM.

For `CCCC(CCC)C(=O)OCc1ccc(S(N)(=O)=O)cc1`, the figures for the Ki in assay [5], in assay [2] and in assay [3] were 115 nM, 333 nM and 1500 nM, respectively.

For the compound `NS(=O)(=O)c1nnc(NS(=O)(=O)Cc2ccccc2)s1`, the Ki was determined as 5 nM in assay [5], 6 nM in assay [2] and 7 nM in assay [3]. For the same compound, the Protected mice in assay [1] was 38%; in [4], 67%.

As for `CC(C)(C)OC(=O)Nc1nnc(S(N)(=O)=O)s1`, the Ki in [5] came out at 9 nM; in assay [2], 130 nM; in [3] it was 460 nM. The Protected mice in assay [1] is 60%; in assay [4], 75%.

Consider `CCCC(CCC)C(=O)OCCc1ccc(S(N)(=O)=O)cc1`, for which the Ki in assay [5] amounted to 844 nM; in assay [2], 313 nM; in assay [3] it was 1300 nM.

On to `CCCC(CCC)C(=O)NCCC(=O)Nc1nnc(S(N)(=O)=O)s1`, for which the Ki was found to be 9 nM in assay [5], 76 nM in assay [2] and 360 nM in assay [3].

`CCCC(CCC)C(=O)NCCc1ccc(S(N)(=O)=O)cc1`: the inhibition constant Ki was 84 nM in assay [5], 200 nM in assay [2] and 3500 nM in assay [3].

On to `CCCC(CCC)C(=O)Nc1c(S(N)(=O)=O)cc(S(N)(=O)=O)c(Cl)c1Cl`, for which the Ki in assay [5] is 26 nM; in assay [2], 155 nM; in assay [3] it was 970 nM.
